Source: the supplement of paper PMC10307832

Legend:
Assay in all cases: relative viability (nuclei count vs DMSO), 5 days (fraction); higher = more cells survive
201T = test system: 201T
Procedure, shortened: (§1)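 Relative viability divides the nuclei count in treated wells by that in vehicle wells. Lung cancer cell lines were seeded in 1536-well plates, dosed by pin tool the next day, and fixed and stained after 5 days in one step with final 0.05% Triton X-100, 1% formaldehyde and 1 ug/ml Hoechst. Dosing was a single drug or a fixed anchor-drug dose plus five library-drug doses (not always all listed) in √10 steps, and values are medians of duplicate plates imaged at 4×.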

ABC-1 = test system: ABC-1
Procedure, shortened: as §1

BEN = test system: BEN
Procedure, shortened: as §1

CAL-12T = test system: CAL-12T
Procedure, shortened: as §1

COR-L 105 = test system: COR-L 105
Procedure, shortened: as §1

EKVX = test system: EKVX
Procedure, shortened: as §1

EMC-BAC-2 = test system: EMC-BAC-2
Procedure, shortened: as §1

HCC-15 = test system: HCC-15
Procedure, shortened: as §1

HCC-44 = test system: HCC-44
Procedure, shortened: as §1

LK-2 = test system: LK-2
Procedure, shortened: as §1

LU99A = test system: LU99A
Procedure, shortened: as §1

NCI-H1651 = test system: NCI-H1651
Procedure, shortened: as §1

NCI-H2023 = test system: NCI-H2023
Procedure, shortened: as §1

NCI-H322M = test system: NCI-H322M
Procedure, shortened: as §1

NCI-H358 = test system: NCI-H358
Procedure, shortened: as §1

NCI-H460 = test system: NCI-H460
Procedure, shortened: as §1

NCI-H520 = test system: NCI-H520
Procedure, shortened: as §1

NCI-H522 = test system: NCI-H522
Procedure, shortened: as §1

NCI-H727 = test system: NCI-H727
Procedure, shortened: as §1

NCI-H838 = test system: NCI-H838
Procedure, shortened: as §1

PC-3 [JPC-3] = test system: PC-3 [JPC-3]
Procedure, shortened: as §1

SW 900 = test system: SW 900
Procedure, shortened: as §1

Q: CN1CCN(CCOc2cc(OC3CCOCC3)c3c(Nc4c(Cl)ccc5c4OCO5)ncnc3c2)CC1 [Saracatinib] + CC(=O)c1c(C)c2cnc(Nc3ccc(N4CCNCC4)cn3)nc2n(C2CCCC2)c1=O [Palbociclib] (partner 0.5 µM) was tested. Which relative viability (201T; first compound 0.02 µM) did it give?
A: Its relative viability is 0.358.

Q: And the relative viability (201T; first compound 0.2 µM)?
A: The relative viability was 0.311.

Q: What about the relative viability (201T; first compound 0.6325 µM) of the same compound?
A: The relative viability was 0.323.

Q: What about the relative viability (201T; first compound 2 µM) of the same compound?
A: The relative viability was 0.26.

Q: And the relative viability (ABC-1; first compound 0.02 µM)?
A: The relative viability was 0.624.

Q: What about the relative viability (ABC-1; first compound 0.2 µM) of the same compound?
A: Its relative viability is 0.646.

Q: And the relative viability (ABC-1; first compound 0.6325 µM)?
A: The relative viability was 0.891.

Q: And the relative viability (ABC-1; first compound 2 µM)?
A: The relative viability was 0.622.

Q: And the relative viability (BEN; first compound 0.02 µM)?
A: Its relative viability is 0.513.

Q: What about the relative viability (BEN; first compound 0.2 µM) of the same compound?
A: Its relative viability is 0.407.

Q: And the relative viability (BEN; first compound 0.6325 µM)?
A: Its relative viability is 0.485.

Q: What about the relative viability (BEN; first compound 2 µM) of the same compound?
A: The relative viability was 0.435.

Q: And the relative viability (CAL-12T; first compound 0.02 µM)?
A: Its relative viability is 0.542.

Q: What about the relative viability (CAL-12T; first compound 0.2 µM) of the same compound?
A: Its relative viability is 0.409.

Q: What about the relative viability (CAL-12T; first compound 0.6325 µM) of the same compound?
A: The relative viability was 0.527.

Q: What about the relative viability (CAL-12T; first compound 2 µM) of the same compound?
A: Its relative viability is 0.152.

Q: What about the relative viability (COR-L 105; first compound 0.02 µM) of the same compound?
A: Its relative viability is 0.384.

Q: And the relative viability (COR-L 105; first compound 0.2 µM)?
A: Its relative viability is 0.332.

Q: What about the relative viability (COR-L 105; first compound 0.6325 µM) of the same compound?
A: The relative viability was 0.38.

Q: What about the relative viability (COR-L 105; first compound 2 µM) of the same compound?
A: Its relative viability is 0.321.

Q: And the relative viability (EKVX; first compound 0.02 µM)?
A: The relative viability was 0.38.

Q: And the relative viability (EKVX; first compound 0.6325 µM)?
A: The relative viability was 0.306.

Q: What about the relative viability (EKVX; first compound 2 µM) of the same compound?
A: Its relative viability is 0.146.

Q: And the relative viability (EMC-BAC-2; first compound 0.02 µM)?
A: Its relative viability is 0.507.

Q: What about the relative viability (EMC-BAC-2; first compound 0.2 µM) of the same compound?
A: The relative viability was 0.483.

Q: What about the relative viability (EMC-BAC-2; first compound 0.6325 µM) of the same compound?
A: The relative viability was 0.517.

Q: And the relative viability (EMC-BAC-2; first compound 2 µM)?
A: Its relative viability is 0.511.

Q: And the relative viability (HCC-15; first compound 0.02 µM)?
A: The relative viability was 0.763.

Q: What about the relative viability (HCC-15; first compound 0.2 µM) of the same compound?
A: The relative viability was 0.677.

Q: And the relative viability (HCC-15; first compound 0.6325 µM)?
A: Its relative viability is 0.758.

Q: And the relative viability (HCC-15; first compound 2 µM)?
A: Its relative viability is 0.753.

Q: What about the relative viability (HCC-44; first compound 0.02 µM) of the same compound?
A: The relative viability was 1.01.

Q: What about the relative viability (HCC-44; first compound 0.2 µM) of the same compound?
A: Its relative viability is 0.974.

Q: What about the relative viability (HCC-44; first compound 0.6325 µM) of the same compound?
A: Its relative viability is 0.979.

Q: What about the relative viability (HCC-44; first compound 2 µM) of the same compound?
A: Its relative viability is 0.938.

Q: What about the relative viability (LK-2; first compound 0.02 µM) of the same compound?
A: Its relative viability is 0.496.

Q: And the relative viability (LK-2; first compound 0.2 µM)?
A: Its relative viability is 0.405.

Q: And the relative viability (LK-2; first compound 0.6325 µM)?
A: Its relative viability is 0.528.

Q: And the relative viability (LK-2; first compound 2 µM)?
A: The relative viability was 0.313.

Q: What about the relative viability (LU99A; first compound 0.02 µM) of the same compound?
A: The relative viability was 0.413.

Q: And the relative viability (LU99A; first compound 0.2 µM)?
A: Its relative viability is 0.336.

Q: What about the relative viability (LU99A; first compound 0.6325 µM) of the same compound?
A: Its relative viability is 0.349.

Q: What about the relative viability (LU99A; first compound 2 µM) of the same compound?
A: The relative viability was 0.31.

Q: What about the relative viability (NCI-H1651; first compound 0.02 µM) of the same compound?
A: Its relative viability is 0.587.

Q: What about the relative viability (NCI-H1651; first compound 0.2 µM) of the same compound?
A: The relative viability was 0.478.

Q: And the relative viability (NCI-H1651; first compound 0.6325 µM)?
A: Its relative viability is 0.642.

Q: And the relative viability (NCI-H1651; first compound 2 µM)?
A: The relative viability was 0.567.

Q: What about the relative viability (NCI-H2023; first compound 0.02 µM) of the same compound?
A: Its relative viability is 0.379.

Q: And the relative viability (NCI-H2023; first compound 0.2 µM)?
A: Its relative viability is 0.31.

Q: And the relative viability (NCI-H2023; first compound 0.6325 µM)?
A: The relative viability was 0.282.

Q: What about the relative viability (NCI-H2023; first compound 2 µM) of the same compound?
A: The relative viability was 0.19.

Q: And the relative viability (NCI-H322M; first compound 0.02 µM)?
A: The relative viability was 0.534.

Q: And the relative viability (NCI-H322M; first compound 0.2 µM)?
A: The relative viability was 0.38.

Q: What about the relative viability (NCI-H322M; first compound 0.6325 µM) of the same compound?
A: Its relative viability is 0.46.

Q: What about the relative viability (NCI-H322M; first compound 2 µM) of the same compound?
A: The relative viability was 0.306.

Q: And the relative viability (NCI-H358; first compound 0.02 µM)?
A: The relative viability was 0.136.

Q: What about the relative viability (NCI-H358; first compound 0.2 µM) of the same compound?
A: Its relative viability is 0.118.

Q: What about the relative viability (NCI-H358; first compound 0.6325 µM) of the same compound?
A: Its relative viability is 0.127.

Q: And the relative viability (NCI-H358; first compound 2 µM)?
A: Its relative viability is 0.0903.

Q: What about the relative viability (NCI-H460; first compound 0.02 µM) of the same compound?
A: Its relative viability is 0.146.

Q: What about the relative viability (NCI-H460; first compound 0.2 µM) of the same compound?
A: Its relative viability is 0.131.

Q: What about the relative viability (NCI-H460; first compound 0.6325 µM) of the same compound?
A: Its relative viability is 0.228.

Q: And the relative viability (NCI-H460; first compound 2 µM)?
A: The relative viability was 0.121.

Q: What about the relative viability (NCI-H520; first compound 0.02 µM) of the same compound?
A: Its relative viability is 0.249.

Q: And the relative viability (NCI-H520; first compound 0.2 µM)?
A: The relative viability was 0.211.

Q: What about the relative viability (NCI-H520; first compound 0.6325 µM) of the same compound?
A: Its relative viability is 0.214.

Q: What about the relative viability (NCI-H520; first compound 2 µM) of the same compound?
A: The relative viability was 0.156.

Q: And the relative viability (NCI-H522; first compound 0.02 µM)?
A: The relative viability was 0.914.

Q: What about the relative viability (NCI-H522; first compound 0.2 µM) of the same compound?
A: The relative viability was 0.802.

Q: What about the relative viability (NCI-H522; first compound 0.6325 µM) of the same compound?
A: Its relative viability is 0.911.

Q: What about the relative viability (NCI-H522; first compound 2 µM) of the same compound?
A: Its relative viability is 0.756.

Q: What about the relative viability (NCI-H727; first compound 0.02 µM) of the same compound?
A: The relative viability was 0.604.

Q: And the relative viability (NCI-H727; first compound 0.2 µM)?
A: Its relative viability is 0.692.

Q: What about the relative viability (NCI-H727; first compound 0.6325 µM) of the same compound?
A: The relative viability was 0.674.

Q: What about the relative viability (NCI-H727; first compound 2 µM) of the same compound?
A: Its relative viability is 0.551.

Q: And the relative viability (NCI-H838; first compound 0.02 µM)?
A: Its relative viability is 0.224.

Q: And the relative viability (NCI-H838; first compound 0.2 µM)?
A: The relative viability was 0.215.

Q: What about the relative viability (NCI-H838; first compound 0.6325 µM) of the same compound?
A: The relative viability was 0.216.

Q: What about the relative viability (NCI-H838; first compound 2 µM) of the same compound?
A: The relative viability was 0.182.

Q: And the relative viability (PC-3 [JPC-3]; first compound 0.02 µM)?
A: Its relative viability is 0.568.

Q: What about the relative viability (PC-3 [JPC-3]; first compound 0.2 µM) of the same compound?
A: Its relative viability is 0.507.

Q: And the relative viability (PC-3 [JPC-3]; first compound 0.6325 µM)?
A: The relative viability was 0.532.

Q: What about the relative viability (PC-3 [JPC-3]; first compound 2 µM) of the same compound?
A: The relative viability was 0.561.

Q: What about the relative viability (SW 900; first compound 0.02 µM) of the same compound?
A: Its relative viability is 0.548.

Q: What about the relative viability (SW 900; first compound 0.2 µM) of the same compound?
A: Its relative viability is 0.432.

Q: And the relative viability (SW 900; first compound 0.6325 µM)?
A: The relative viability was 0.383.

Q: What about the relative viability (SW 900; first compound 2 µM) of the same compound?
A: The relative viability was 0.293.
